Data: patent publication US20160297833A1, “THIENOPYRIMIDINES AS MKNK1 AND MKNK2 INHIBITORS” (BAYER PHARMA AKTIENGESELLSCHAFT, priority 2013, published 2016)

molecular target: T1, human full-length MKNK1 (Homo sapiens, UniProt Q9BUB5, T385D); experiment: MKNK1 kinase high ATP assay (TR-FRET); type: biochemical; settings: not given
T1 construct: GST (N); purchased Carna Biosciences 02-145; host or cells: insect cells (baculovirus expression system)
Procedure, shortened: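 Full-length human MKNK1 (T385D) preincubated 15 min at 22 °C with compound in HEPES pH 7.5/MgCl2/DTT buffer; reaction with 2 mM ATP (final) and 0.06 μM biotinylated peptide (final), 30 min at 22 °C.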

T1 sequence (Q9BUB5 1-424 isoform Q9BUB5-2 T344D): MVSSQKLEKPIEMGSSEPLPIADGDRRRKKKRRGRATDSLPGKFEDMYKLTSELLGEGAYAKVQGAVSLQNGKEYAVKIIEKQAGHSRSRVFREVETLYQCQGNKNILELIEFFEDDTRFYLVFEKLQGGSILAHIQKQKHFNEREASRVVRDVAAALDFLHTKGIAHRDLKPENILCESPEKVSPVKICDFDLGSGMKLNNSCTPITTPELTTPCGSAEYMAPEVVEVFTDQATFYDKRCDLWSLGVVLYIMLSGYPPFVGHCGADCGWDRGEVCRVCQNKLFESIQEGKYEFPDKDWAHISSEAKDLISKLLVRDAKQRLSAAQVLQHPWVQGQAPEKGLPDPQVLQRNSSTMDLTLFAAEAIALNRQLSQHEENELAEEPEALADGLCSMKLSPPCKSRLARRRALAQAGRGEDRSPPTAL

SMILES | IC50 [nM]
CCOc1cc2[nH]ncc2cc1Nc1ncnc2sc3c(c12)CC[C@H](C(=O)N1CCC(=O)CC1)C3 [Example 68, 1-({(7S)-4-[(6-Ethoxy-1H-indazol-5-yl)amino]-5,6,7,8-tetrahydro[1]benzothieno[2,3-d]pyrimidin-7-yl}carbonyl)piperidin-4-one] | 0.3
CCOc1cc2[nH]ncc2cc1Nc1ncnc2sc3c(c12)CC[C@@H](C(=O)N1CCC(=O)CC1)C3 [Example 69, 1-({(7R)-4-[(6-Ethoxy-1H-indazol-5-yl)amino]-5,6,7,8-tetrahydro[1]benzothieno[2,3-d]pyrimidin-7-yl}carbonyl)piperidin-4-one] | 2.5

same assay, conditions: Table 1; MKNK1 kinase high ATP assay, 2 mM ATP; read-out: MKNK1 IC50

SMILES | IC50 [nM]
CCOc1cc2[nH]ncc2cc1Nc1ncnc2sc3c(c12)CC[C@H](C(=O)N1C[C@@H]2C[C@H]1CO2)C3 [Example 70, {(7S)-4-[(6-Ethoxy-1H-indazol-5-yl)amino]-5,6,7,8-tetrahydro[1]benzothieno[2,3-d]pyrimidin-7-yl}[(1S,4S)-2-oxa-5-azabicyclo[2.2.1]hept-5-yl]methanone] | 0.4
CCOc1cc2[nH]ncc2cc1Nc1ncnc2sc3c(c12)CC[C@H](C(=O)N1C[C@H]2C[C@@H]1CO2)C3 [Example 71, {(7S)-4-[(6-Ethoxy-1H-indazol-5-yl)amino]-5,6,7,8-tetrahydro[1]benzothieno[2,3-d]pyrimidin-7-yl}[(1R,4R)-2-oxa-5-azabicyclo[2.2.1]hept-5-yl]methanone] | 0.9
CCOc1cc2[nH]ncc2cc1Nc1ncnc2sc3c(c12)CC[C@H](C(=O)N1CC2(COC2)C1)C3 [Example 72, {(7S)-4-[(6-Ethoxy-1H-indazol-5-yl)amino]-5,6,7,8-tetrahydro[1]benzothieno[2,3-d]pyrimidin-7-yl}(2-oxa-6-azaspiro[3.3]hept-6-yl)methanone] | 0.7
CCOc1cc2[nH]ncc2cc1Nc1ncnc2sc3c(c12)CC[C@H](C(=O)N(C)CCO)C3 [Example 73, (7S)-4-[(6-Ethoxy-1H-indazol-5-yl)amino]-N-(2-hydroxyethyl)-N-methyl-5,6,7,8-tetrahydro[1]benzothieno[2,3-d]pyrimidine-7-carboxamide] | 0.3
CCOc1cc2[nH]ncc2cc1Nc1ncnc2sc3c(c12)CC[C@H](C(=O)N(C)CC(C)(C)O)C3 [Example 74, (7S)-4-[(6-Ethoxy-1H-indazol-5-yl)amino]-N-(2-hydroxy-2-methylpropyl)-N-methyl-5,6,7,8-tetrahydro[1]benzothieno[2,3-d]pyrimidine-7-carboxamide] | 0.2
CCOc1cc2[nH]ncc2cc1Nc1ncnc2sc3c(c12)CC[C@H](C(=O)N1C[C@@H](O)[C@H](O)C1)C3 [Example 75, [(3R,4R)-3,4-Dihydroxypyrrolidin-1-yl]{(7S)-4-[(6-ethoxy-1H-indazol-5-yl)amino]-5,6,7,8-tetrahydro[1]benzothieno[2,3-d]pyrimidin-7-yl}methanone] | 0.3
CCOc1cc2[nH]ncc2cc1Nc1ncnc2sc3c(c12)CC[C@H](C(=O)N1C[C@H](O)[C@@H](O)C1)C3 [Example 76, [(3S,4S)-3,4-Dihydroxypyrrolidin-1-yl]{(7S)-4-[(6-ethoxy-1H-indazol-5-yl)amino]-5,6,7,8-tetrahydro[1]benzothieno[2,3-d]pyrimidin-7-yl}methanone] | 0.4
CCOc1cc2[nH]ncc2cc1Nc1ncnc2sc3c(c12)CC[C@H](C(=O)N(CCO)CCO)C3 [Example 77, (7S)-4-[(6-Ethoxy-1H-indazol-5-yl)amino]-N,N-bis(2-hydroxyethyl)-5,6,7,8-tetrahydro[1]benzothieno[2,3-d]pyrimidine-7-carboxamide] | 0.1
CC(C)Oc1cc2[nH]ncc2cc1Nc1ncnc2sc3c(c12)CC[C@H](C(=O)N(C)C)C3 [Example 78, (7S)—N,N-Dimethyl-4-{[6-(propan-2-yloxy)-1H-indazol-5-yl]amino}-5,6,7,8-tetrahydro[1]benzothieno[2,3-d]pyrimidine-7-carboxamide] | 0.3
CC(C)Oc1cc2[nH]ncc2cc1Nc1ncnc2sc3c(c12)CC[C@@H](C(=O)N(C)C)C3 [Example 79, (7R)—N,N-Dimethyl-4-{[6-(propan-2-yloxy)-1H-indazol-5-yl]amino}-5,6,7,8-tetrahydro[1]benzothieno[2,3-d]pyrimidine-7-carboxamide] | 12.1
CCN(C(=O)[C@H]1CCc2c(sc3ncnc(Nc4cc5cn[nH]c5cc4OC(C)C)c23)C1)C(C)C [Example 80, (7S)—N-Ethyl-N-(propan-2-yl)-4-{[6-(propan-2-yloxy)-1H-indazol-5-yl]amino}-5,6,7,8-tetrahydro[1]benzothieno[2,3-d]pyrimidine-7-carboxamide] | 0.3
CC(C)Oc1cc2[nH]ncc2cc1Nc1ncnc2sc3c(c12)CC[C@H](C(=O)N(C)CC(F)F)C3 [Example 81, (7S)—N-(2,2-Difluoroethyl)-N-methyl-4-{[6-(propan-2-yloxy)-1H-indazol-5-yl]amino}-5,6,7,8-tetrahydro[1]benzothieno[2,3-d]pyrimidine-7-carboxamide] | 0.3
CC(C)Oc1cc2[nH]ncc2cc1Nc1ncnc2sc3c(c12)CC[C@@H](C(=O)N(C)CC(F)F)C3 [Example 82, (7R)—N-(2,2-Difluoroethyl)-N-methyl-4-{[6-(propan-2-yloxy)-1H-indazol-5-yl]amino}-5,6,7,8-tetrahydro[1]benzothieno[2,3-d]pyrimidine-7-carboxamide] | 8.1
CC(C)Oc1cc2[nH]ncc2cc1Nc1ncnc2sc3c(c12)CC[C@H](C(=O)N1CCCC1)C3 [Example 83, [(7S)-4-{[6-(Propan-2-yloxy)-1H-indazol-5-yl]amino}-5,6,7,8-tetrahydro[1]benzothieno[2,3-d]pyrimidin-7-yl](pyrrolidin-1-yl)methanone] | 0.3
CC(C)Oc1cc2[nH]ncc2cc1Nc1ncnc2sc3c(c12)CC[C@H](C(=O)N1CCOC[C@@H]1C)C3 [Example 84, [(3S)-3-Methylmorpholin-4-yl][(7S)-4-{[6-(propan-2-yloxy)-1H-indazol-5-yl]amino}-5,6,7,8-tetrahydro[1]benzothieno[2,3-d]pyrimidin-7-yl]methanone] | 0.7
CC(C)Oc1cc2[nH]ncc2cc1Nc1ncnc2sc3c(c12)CC[C@H](C(=O)N1CCOC[C@H]1C)C3 [Example 85, [(3R)-3-Methylmorpholin-4-yl][(7S)-4-{[6-(propan-2-yloxy)-1H-indazol-5-yl]amino}-5,6,7,8-tetrahydro[1]benzothieno[2,3-d]pyrimidin-7-yl]methanone] | 0.6
CC(C)Oc1cc2[nH]ncc2cc1Nc1ncnc2sc3c(c12)CC[C@H](C(=O)N1C[C@@H]2C[C@H]1CO2)C3 [Example 86, (1S,4S)-2-Oxa-5-azabicyclo[2.2.1]hept-5-yl[(7S)-4-{[6-(propan-2-yloxy)-1H-indazol-5-yl]amino}-5,6,7,8-tetrahydro[1]benzothieno[2,3-d]pyrimidin-7-yl]methanone] | 0.6
CC(C)Oc1cc2[nH]ncc2cc1Nc1ncnc2sc3c(c12)CC[C@H](C(=O)N1C[C@H]2C[C@@H]1CO2)C3 [Example 87, (1R,4R)-2-Oxa-5-azabicyclo[2.2.1]hept-5-yl[(7S)-4-{[6-(propan-2-yloxy)-1H-indazol-5-yl]amino}-5,6,7,8-tetrahydro[1]benzothieno[2,3-d]pyrimidin-7-yl]methanone] | 0.3

same assay, conditions: Table 2; ratio of the IC50-value of an R-enantiomer and its corresponding S-enantiomer

SMILES | Activity-Ratio MKNK1
CCOc1cc2[nH]ncc2cc1Nc1ncnc2sc3c(c12)CC[C@H](C(=O)N1CCC(=O)CC1)C3 [Example 68, 1-({(7S)-4-[(6-Ethoxy-1H-indazol-5-yl)amino]-5,6,7,8-tetrahydro[1]benzothieno[2,3-d]pyrimidin-7-yl}carbonyl)piperidin-4-one] | 9.0
CC(C)Oc1cc2[nH]ncc2cc1Nc1ncnc2sc3c(c12)CC[C@H](C(=O)N(C)C)C3 [Example 78, (7S)—N,N-Dimethyl-4-{[6-(propan-2-yloxy)-1H-indazol-5-yl]amino}-5,6,7,8-tetrahydro[1]benzothieno[2,3-d]pyrimidine-7-carboxamide] | 42.9
CC(C)Oc1cc2[nH]ncc2cc1Nc1ncnc2sc3c(c12)CC[C@H](C(=O)N(C)CC(F)F)C3 [Example 81, (7S)—N-(2,2-Difluoroethyl)-N-methyl-4-{[6-(propan-2-yloxy)-1H-indazol-5-yl]amino}-5,6,7,8-tetrahydro[1]benzothieno[2,3-d]pyrimidine-7-carboxamide] | 27.5
